According to patent US20040029910A1, “Protoberberine derivatives which inhibit activity of the mitogen-activated protein kinase” (priority 2000, published 2004):

Key:
[1] = target: T1, Spc1 kinase (Schizosaccharomyces pombe, UniProt Q09892); test: Spc1 kinase activity, myelin basic protein substrate ([γ-32P]ATP, SDS-PAGE, FIG. 3); assay type: biochemical; settings: purified GST-Spc1, myelin basic protein as substrate
T1 construct: The genes wis1 and spc1 were cloned into the pRep1 vector containing nmt1 promoter; made in house; host or cells: Schizosaccharomyces pombe KGY246 (pRep1 vector, nmt1 promoter)
T1 sequence (Q09892 1-349): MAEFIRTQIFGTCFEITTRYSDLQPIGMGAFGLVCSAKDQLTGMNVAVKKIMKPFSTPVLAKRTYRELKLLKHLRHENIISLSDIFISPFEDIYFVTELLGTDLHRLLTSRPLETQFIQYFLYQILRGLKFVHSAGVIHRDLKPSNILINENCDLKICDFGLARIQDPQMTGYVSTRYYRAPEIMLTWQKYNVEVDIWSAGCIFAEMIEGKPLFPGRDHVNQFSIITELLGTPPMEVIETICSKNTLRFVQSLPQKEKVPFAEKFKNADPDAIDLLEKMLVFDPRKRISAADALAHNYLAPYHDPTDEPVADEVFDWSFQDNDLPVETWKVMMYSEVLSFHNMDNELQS
Method: The genes wis1 and spc1 were cloned into the pRep1 vector containing nmt1 promoter of which expression was inhibited by thiamin in the medium and able to tag GST. The KGY246 cells, wild type Schizosaccharomyces pombe cells were transformed with this plasmid. The expression of Wis1 and Spc1 kinase tagged with GST was induced by the cultivation of the transformed cells in MM^AU medium containing 0.4 mM thiamin followed by cultivation to exponential phase(5×10^6 cells) for about 20 hours in 100 mL of MM^AU medium in which thiamin was withdrawn. […]
Before Wis1 and Spc1 kinases purified in example 4 were analyzed, they were pre-incubated in analyzing buffer of kinase (50 mM Tris-Cl pH7.4, 20 mM MgCl2, 5 mM EGTA, 2 mM Na vanadate, 1 mM DTT). […] Therefore, the degree of Wis1 autophosphorylation was also measured.

[2] = target: T2, Wis1 kinase (Schizosaccharomyces pombe, UniProt P33886); test: Wis1 kinase activity and autophosphorylation ([γ-32P]ATP, SDS-PAGE, FIG. 2); assay type: biochemical; settings: purified GST-Wis1, kinase reaction 30° C. 30 minutes, autophosphorylation also measured
T2 construct: The genes wis1 and spc1 were cloned into the pRep1 vector containing nmt1 promoter; made in house; host or cells: Schizosaccharomyces pombe KGY246 (pRep1 vector, nmt1 promoter)
T2 sequence (P33886 1-605): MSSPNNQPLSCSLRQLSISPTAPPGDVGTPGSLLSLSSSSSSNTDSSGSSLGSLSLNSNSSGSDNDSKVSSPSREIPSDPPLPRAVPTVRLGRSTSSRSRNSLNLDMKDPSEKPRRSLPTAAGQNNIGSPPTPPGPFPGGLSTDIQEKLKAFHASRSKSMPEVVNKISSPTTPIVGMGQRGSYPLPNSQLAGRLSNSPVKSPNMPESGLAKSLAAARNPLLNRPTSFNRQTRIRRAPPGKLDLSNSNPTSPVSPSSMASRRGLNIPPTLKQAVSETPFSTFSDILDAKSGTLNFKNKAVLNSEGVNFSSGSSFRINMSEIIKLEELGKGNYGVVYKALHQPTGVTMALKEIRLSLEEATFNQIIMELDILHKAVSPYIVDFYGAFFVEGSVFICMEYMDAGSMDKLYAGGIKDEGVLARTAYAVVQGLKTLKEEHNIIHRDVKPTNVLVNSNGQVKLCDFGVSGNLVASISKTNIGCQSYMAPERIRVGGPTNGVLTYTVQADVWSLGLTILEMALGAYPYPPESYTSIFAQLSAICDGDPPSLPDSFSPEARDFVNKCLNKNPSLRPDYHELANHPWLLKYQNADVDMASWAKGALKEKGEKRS
Method: The genes wis1 and spc1 were cloned into the pRep1 vector containing nmt1 promoter of which expression was inhibited by thiamin in the medium and able to tag GST. The KGY246 cells, wild type Schizosaccharomyces pombe cells were transformed with this plasmid. The expression of Wis1 and Spc1 kinase tagged with GST was induced by the cultivation of the transformed cells in MM^AU medium containing 0.4 mM thiamin followed by cultivation to exponential phase(5×10^6 cells) for about 20 hours in 100 mL of MM^AU medium in which thiamin was withdrawn. After osmotic shock(0.6M KCl) and oxidative stress were given to the cells expressing Wis1 and Spc1 tagged with GST for 25 minutes, cells were recovered at 4° C., washed with ice-cold PBS/NaF(50 mM)/NaN3(1 mM) buffer and HB buffer(25 mM HEPES, pH 7.5, 60 mM β-glycerophosphate, 15 mM EGTA, 0.1 mM Na vanadate, 0.1% triton and hydrolyzed using glass bead and bead beater purchased from Sigma. The supernatant of hydrolyzed cells was incubated with 100 mM NaCl for salting-out to remove unnecessary proteins. After the supernatant was incubated with 0.045 g/ml GST beads for 1.5 hours, proteins not bound to GST beads were removed. Purified Wis1 and Spc1 kinases were separated on 7% SDS-PAGE and the degree of purification was confirmed by western blotting using GST antibody.
Before Wis1 and Spc1 kinases purified in example 4 were analyzed, they were pre-incubated in analyzing buffer of kinase (50 mM Tris-Cl pH7.4, 20 mM MgCl2, 5 mM EGTA, 2 mM Na vanadate, 1 mM DTT). The kinase reaction was performed at 30° C. for 30 minutes in the presence of 1 mg/ml myelin basic protein(MBP), 1 mM ATP and 20 uCi of [γ-^32p]ATP and then terminated by adding SDS sample buffer and heating at 90° C. for 5 minutes. The reaction mixtures were separated on SDS-polyacrylamide gel electrophoresis. After fixation with 10% acetic acid: 10% methanol and drying, the gel was exposed on X-ray film. When Wis1 is activated by stimulus, it also activates autophosphorylation. Therefore, the degree of Wis1 autophosphorylation was also measured.

[3] = test system: KGY246 (wild type); test: Growth (cell number) of wild type strain KGY246; assay type: cell-based, Schizosaccharomyces pombe
Method: To investigate the effect of protoberberine derivatives on the growth of cells, the cells of each strain were cultured in rich medium YE^AU to exponential phase(5×10^7 cells/mL). These cells were transferred to YE^AU medium and cultured for 12 hours. Then cell number was measured every 3 hours.

Row | SMILES | inhibition of Spc1 kinase activity (in words) [1] | inhibition of Wis1 kinase activity (in words) [2] | cell number ([3]; Table 2, KGY246, time 14) | cell number ([3]; Table 2, KGY246, time 17) | cell number ([3]; Table 2, KGY246, time 20) | cell number ([3]; Table 2, KGY246, time 23)
1 | CCCOc1cc2c(cc1OCCC)-c1cc3ccc(OCCC)c(OCCC)c3c[n+]1CC2.[I-] [2,3,9,10-tetrapropoxyprotoberberine iodide] | directly inhibited |  |  |  |  | 
2 | COc1ccc2c(Cc3ccc(O[Si](C)(C)C(C)(C)C)cc3)c3[n+](cc2c1OC)CCc1cc2c(cc1-3)OCO2.[Cl-] [13-(4-(t-butyldimethylsilyloxy)benzyl)berberine chloride] |  | directly inhibited | 20 | 19 | 22 | 16
3 | COc1ccc2c(Cc3ccc(C(C)(C)C)cc3)c3[n+](cc2c1OC)CCc1cc2c(cc1-3)OCO2.[Cl-] [13-(4-t-butylbenzyl)berberine chloride] |  | directly inhibited |  |  |  | 
